{"source": "paper PMC9014415", "about": "“Repositioning of a Diaminothiazole Series Confirmed to Target the Cyclin-Dependent Kinase CRK12 for Use in the Treatment of African Animal Trypanosomiasis” (Journal of Medicinal Chemistry, 2022)", "biological_target": "T1, Phosphoglycerate kinase (PGK) (Trypanosoma brucei brucei, UniProt P07378)", "T1 construct": "endogenous in cells; host or cells: Trypanosoma brucei procyclic form, whole-cell lysate", "T1 sequence (P07378 whole entry)": "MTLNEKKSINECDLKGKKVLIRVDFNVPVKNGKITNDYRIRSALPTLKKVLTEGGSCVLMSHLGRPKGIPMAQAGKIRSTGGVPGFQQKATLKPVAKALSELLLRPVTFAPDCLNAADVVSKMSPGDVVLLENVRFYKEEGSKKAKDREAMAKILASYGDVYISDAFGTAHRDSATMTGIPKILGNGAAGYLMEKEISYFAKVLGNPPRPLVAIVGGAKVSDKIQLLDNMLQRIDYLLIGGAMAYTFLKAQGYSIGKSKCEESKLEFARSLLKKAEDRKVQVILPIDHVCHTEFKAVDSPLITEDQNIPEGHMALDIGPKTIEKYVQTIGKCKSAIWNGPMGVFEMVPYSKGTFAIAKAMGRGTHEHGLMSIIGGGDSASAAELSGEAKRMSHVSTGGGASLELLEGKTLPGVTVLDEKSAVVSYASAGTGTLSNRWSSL", "assay": "SILAC pull-down with resin-bound 13, competition by compound 2", "format": "binding", "conditions": "procyclic lysate; compound 2 10 μM vs DMSO; mean of three experiments", "protocol": "Chemical proteomic studies were carried out by immobilizing an analogue of compound 2 (probe 13; Figure 3A and Scheme 4) to magnetic beads via a polyethyleneglycol (PEG) linker. Appropriate attachment sites for the PEG linker were informed by the established structure–activity relationships within this series, and an advanced intermediate toward the final derivatized compound was screened against both bloodstream and procyclic forms of T. brucei to ensure that it retained potency. The analogue was immobilized by attachment to NHS-ester-activated paramagnetic beads. Activated beads were then incubated in SILAC (stable isotope labeling by amino acids in cell culture)-labeled T. brucei procyclic whole-cell lysates in the presence or absence of compound 2 (10 μM) with either “light-“ or “heavy”-labeled lysate. After combining the eluates from the beads and performing proteomic analyses, proteins that bound specifically to the diaminothiazole pharmacophore were distinguished from proteins that bound non-specifically to the beads by virtue of compound 2:DMSO tryptic peptide isotope ratios. As a result of these studies, four kinases and a cyclin were identified as specific binders of the compound 2-derivatized beads (Figure 3B and Table S11). It should be noted that of the four kinases identified, only CRK12 has been established as essential for survival of T. brucei.[14] […]"}
{"smiles": "CC(C)CS(=O)(=O)N[C@H]1CC[C@H](Nc2nc(N)c(C(=O)c3c(F)cc(CN(C)C)cc3F)s2)CC1", "note": "[Compound 2, N-(trans)-[4-[[4-Amino-5-[4-(dimethylaminomethyl)-2,6-difluoro-benzoyl]thiazol-2-yl]amino]cyclohexyl]-2-methyl-propane-1-sulfonamide]", "values": [{"measurement": "Log2 ratio DMSO/compound", "result": 1.92}]}
